# Laboratory results reported in EPA's ToxRefDB 2.
# Tests used:
# rat [1] = details: Subchronic oral toxicity in rodents, fischer, Gavage/Intubation, dose end: 17 week, group: systemic
# mouse [2] = details: Subchronic oral toxicity in rodents, b6c3f1, Gavage/Intubation, dose end: 17 week, group: systemic
# mouse [3] = details: Chronic toxicity, other, Oral, Feed, dose end: 150 week, group: systemic
# rat [4] = details: Chronic toxicity, sprague dawley, Oral, Feed, dose end: 24 month, group: systemic
# rat [5] = details: Multigenerational reproductive toxicity study, sprague dawley, Inhalation, Whole-Body, dose end: 2 generation
# rat [6] = details: Prenatal developmental toxicity study, sprague dawley, Inhalation, Whole-Body, dose end: 15 GD
# rat [7] = details: Prenatal developmental toxicity study, sprague dawley, Oral, Gavage/Intubation, dose end: 17 GD
# rabbit = details: Prenatal developmental toxicity study, new zealand white, Oral, Gavage/Intubation, dose end: 19 GD
# rat [8] = details: Sub-acute repeat dose toxicity, sprague dawley, Oral, Gavage/Intubation, dose end: 28 day, group: systemic
# rat [9] = details: Prenatal developmental toxicity study, sprague dawley, Oral, Gavage/Intubation, dose end: 17 GD; remark: listed apart in the source
# dog [10] = details: Sub-acute repeat dose toxicity, beagle, Oral, Gavage/Intubation, dose end: 4 week, group: systemic
# rat [11] = details: Multigenerational reproductive toxicity study, Oral, Gavage/Intubation, dose end: 2 generation
# rat [12] = details: Prenatal developmental toxicity study; sprague dawley; Oral; Gavage/Intubation; dose end: 15 GD; group: developmental; systemic / in life observation / body weight / fetal weight
# rat [13] = details: Carcinogenicity, fischer, Oral, Feed, dose end: 104 week, group: systemic
# dog [14] = details: Chronic toxicity, beagle, Oral, Feed, dose end: 12 month, group: systemic
# rat [15] = details: Chronic toxicity; sprague dawley; Oral; Feed; dose end: 52 week; group: systemic; systemic / pathology microscopic / liver / hypertrophy + systemic / pathology microscopic / thyroid gland / colloid content + systemic / …
# mouse [16] = details: Combined chronic toxicity/carcinogenicity, other, Oral, Feed, dose end: 24 month, group: systemic
# rat [17] = details: Multigenerational reproductive toxicity study, sprague dawley, Oral, Water, dose end: 3 generation
# rat [18] = details: Multigenerational reproductive toxicity study, Sprague Dawley, Oral, Gavage/Intubation, dose end: 2 generation
# rat [19] = details: Carcinogenicity; other; Oral; Feed; dose end: 78 week; group: systemic; systemic / pathology microscopic / thyroid gland / adenoma + systemic / in life observation / clinical signs / abdominogenital staining + …
# mouse [20] = details: Carcinogenicity; b6c3f1; Oral; Feed; dose end: 78 week; group: systemic; systemic / in life observation / body weight / body weight + systemic / pathology microscopic / liver / carcinoma
# [21] = systemic / hematology / leukocyte (wbc) count differential / leukocyte (wbc) + systemic / hematology / lymphocyte / lymphocyte
# [22] = systemic / hematology / leukocyte (wbc) count differential / leukocyte (wbc) + systemic / hematology / lymphocyte / lymphocyte + systemic / …
# [23] = systemic / in life observation / body weight / body weight
# [24] = systemic / in life observation / body weight / body weight + systemic / organ weight / liver / absolute + systemic / organ weight / liver / …
# [25] = group: offspring, systemic / in life observation / body weight / offspring (pup) weight gain + systemic / in life observation / body weight / offspring (pup) …
# [26] = group: parental, systemic / in life observation / body weight / body weight
# [27] = group: reproductive, reproductive / offspring survival early / litter viability other / litter viability + reproductive / reproductive performance / …
# [28] = group: developmental, systemic / in life observation / body weight / fetal weight
# [29] = group: maternal, systemic / in life observation / body weight / body weight + systemic / in life observation / body weight / body weight gain
# [30] = group: maternal, systemic / in life observation / body weight / body weight + systemic / in life observation / body weight / body weight gain + systemic / in…
# [31] = group: maternal, systemic / in life observation / body weight / body weight gain + systemic / in life observation / food consumption / food consumption + …
# [32] = group: maternal, reproductive / reproductive performance / postimplantation loss / postimplantation loss + reproductive / reproductive performance / …
# [33] = systemic / clinical chemistry / alanine aminotransferase (alt/sgpt) / alanine aminotransferase (alt/sgpt) + systemic / clinical chemistry / …
# [34] = systemic / hematology / platelet / platelet + systemic / in life observation / clinical signs / hunched posture + systemic / pathology …
# [35] = group: developmental, developmental / developmental malformation / brain / dilated cerebral ventricle
# [36] = group: developmental, developmental / developmental malformation / brain / dilated cerebral ventricle + developmental / developmental malformation / bone / …
# [37] = group: maternal, reproductive / reproductive performance / postimplantation loss / postimplantation loss + systemic / in life observation / body weight / …
# [38] = systemic / clinical chemistry / chloride / chloride + systemic / hematology / eosinophils / eosinophils + systemic / hematology / …
# [39] = systemic / in life observation / body weight / body weight + systemic / in life observation / clinical signs / defecation (diarrhea) + …
# [40] = group: offspring, developmental / developmental malformation / bone / wavy
# [41] = group: reproductive, reproductive / reproductive performance / gestational length / gestational length + reproductive / offspring survival early / dead fetuses…
# [42] = systemic / pathology microscopic / parathyroid gland / hyperplasia
# [43] = systemic / in life observation / clinical signs / feces, discoloration
# [44] = group: offspring, systemic / pathology microscopic / liver / nuclear alteration
# [45] = group: parental, systemic / pathology microscopic / liver / apoptosis
# [46] = group: offspring, developmental / developmental landmark / vaginal opening / vaginal opening + systemic / clinical chemistry / luteinizing hormone (lh) / …
# [47] = group: offspring, systemic / in life observation / clinical signs / swimming time trial
# [48] = group: parental, systemic / in life observation / clinical signs / salivation + systemic / organ weight / ovary / absolute + systemic / organ weight / ovary…
# [49] = group: reproductive, reproductive / offspring survival early / birth index / live birth index + reproductive / reproductive performance / implantations / …
structure (smiles),measurement,setting,value
c1ccccc1 [Benzene],LEL,rat [1]; [21],25 mg/kg/day
same,NEL,rat [1]; [21],< 25 mg/kg/day
same,LOAEL,rat [1]; [22],> 600 mg/kg/day
same,NOAEL,rat [1]; [22],≥ 600 mg/kg/day
same,LEL,mouse [2]; [21],50 mg/kg/day
same,LOAEL,mouse [2]; [22],> 600 mg/kg/day
same,NEL,mouse [2]; [22],25 mg/kg/day
same,NOAEL,mouse [2]; [22],≥ 600 mg/kg/day
CCOC(=O)NC(=S)Nc1ccccc1NC(=S)NC(=O)OCC [Thiophanate],NEL,mouse [3]; systemic / pathology microscopic / ovary / cyst,60 mg/kg/day
same,LOAEL,mouse [3]; systemic / pathology microscopic / testes / hypospermatogenesis,300 mg/kg/day
same,NOAEL,mouse [3]; systemic / pathology microscopic / testes / hypospermatogenesis + systemic / pathology microscopic / liver / fatty change,60 mg/kg/day
same,LEL,mouse [3]; systemic / pathology microscopic / testes / hypospermatogenesis + systemic / pathology microscopic / liver / fatty change + systemic / …,300 mg/kg/day
same,NEL,rat [4]; [23],10 mg/kg/day
same,NOAEL,rat [4]; [23],10 mg/kg/day
same,LEL,rat [4]; [24],50 mg/kg/day
same,LOAEL,rat [4]; [24],50 mg/kg/day
C1CO1 [Ethylene oxide],LEL,rat [5]; [25],33 ppm
same,LOAEL,rat [5]; [25],33 ppm
same,NEL,rat [5]; [25],10 ppm
same,NOAEL,rat [5]; [25],10 ppm
same,LEL,rat [5]; [26],33 ppm
same,LOAEL,rat [5]; [26],33 ppm
same,NEL,rat [5]; [26],10 ppm
same,NOAEL,rat [5]; [26],10 ppm
same,LEL,rat [5]; [27],33 ppm
same,LOAEL,rat [5]; [27],33 ppm
same,NEL,rat [5]; [27],10 ppm
same,NOAEL,rat [5]; [27],10 ppm
same,LEL,rat [6]; [28],50 ppm
same,LOAEL,rat [6]; [28],50 ppm
same,NEL,rat [6]; [28],< 50 ppm
same,NOAEL,rat [6]; [28],< 50 ppm
same,LEL,rat [6]; [29],125 ppm
same,LOAEL,rat [6]; [29],125 ppm
same,NEL,rat [6]; [30],50 ppm
same,NOAEL,rat [6]; [30],50 ppm
N#C[C@@H]1CC(F)(F)CN1C(=O)CNC1CC2CCC(C1)N2c1ncccn1 (some centres undefined),LEL,rat [7]; [28],100 mg/kg/day
same,LOAEL,rat [7]; [28],100 mg/kg/day
same,NEL,rat [7]; [28],< 100 mg/kg/day
same,NOAEL,rat [7]; [28],< 100 mg/kg/day
same,LEL,rat [7]; [31],200 mg/kg/day
same,LOAEL,rat [7]; [31],200 mg/kg/day
same,NEL,rat [7]; [31],100 mg/kg/day
same,NOAEL,rat [7]; [31],100 mg/kg/day
same,LEL,rabbit; [28],500 mg/kg/day
same,LOAEL,rabbit; [28],> 1500 mg/kg/day
same,NEL,rabbit; [28],< 500 mg/kg/day
same,NOAEL,rabbit; [28],≥ 1500 mg/kg/day
same,LEL,rabbit; [32],500 mg/kg/day
same,LOAEL,rabbit; [32],> 1500 mg/kg/day
same,NEL,rabbit; [32],< 500 mg/kg/day
same,NOAEL,rabbit; [32],≥ 1500 mg/kg/day
same,LOAEL,rat [8]; [33],> 450 mg/kg/day
same,NOAEL,rat [8]; [33],≥ 450 mg/kg/day
same,LEL,rat [8]; [34],50 mg/kg/day
same,NEL,rat [8]; [34],< 50 mg/kg/day
same,LEL,rat [9]; [35],100 mg/kg/day
same,LOAEL,rat [9]; [35],100 mg/kg/day
same,NEL,rat [9]; [36],50 mg/kg/day
same,NOAEL,rat [9]; [36],50 mg/kg/day
same,LOAEL,rat [9]; [37],150 mg/kg/day
same,NEL,rat [9]; [37],50 mg/kg/day
same,NOAEL,rat [9]; [37],100 mg/kg/day
same,LEL,"rat [9]; group: maternal, systemic / in life observation / body weight / body weight gain",100 mg/kg/day
same,LOAEL,dog [10]; [38],> 30 mg/kg/day
same,NOAEL,dog [10]; [38],≥ 30 mg/kg/day
same,LEL,dog [10]; [39],3 mg/kg/day
same,NEL,dog [10]; [39],< 3 mg/kg/day
COc1ccc(C(=O)c2c(C)n(CCN3CCOCC3)c3ccccc23)cc1 [Pravadoline],LEL,rat [11]; [40],300 mg/kg/day
same,LOAEL,rat [11]; [40],> 300 mg/kg/day
same,NEL,rat [11]; [40],100 mg/kg/day
same,NOAEL,rat [11]; [40],≥ 300 mg/kg/day
same,NEL,"rat [11]; group: reproductive, reproductive / reproductive performance / gestational length / gestational length",100 mg/kg/day
same,LEL,rat [11]; [41],300 mg/kg/day
same,LOAEL,rat [11]; [41],> 300 mg/kg/day
same,NOAEL,rat [11]; [41],≥ 300 mg/kg/day
O=c1c(O)c(-c2ccc(O)c(O)c2)oc2cc(O)cc(O)c12 [Quercetin],LEL,rat [12],200 mg/kg/day
same,LOAEL,rat [12],> 2000 mg/kg/day
same,NEL,rat [12],20 mg/kg/day
same,NOAEL,rat [12],≥ 2000 mg/kg/day
same,LOAEL,rat [13]; systemic / in life observation / body weight / body weight + systemic / in life observation / body weight / body weight gain + systemic / …,1600 mg/kg/day
same,NOAEL,rat [13]; systemic / in life observation / body weight / body weight + systemic / organ weight / kidney / relative to body weight + systemic / organ …,400 mg/kg/day
same,LEL,rat [13]; [42],40 mg/kg/day
same,NEL,rat [13]; [42],< 40 mg/kg/day
"CC1(C)C(=O)N(Cl)C(=O)N1Br [Bromo-3-chloro-5,5-dimethylhydantoin]",LEL,dog [14]; [43],120 mg/kg/day
same,NEL,dog [14]; [43],< 120 mg/kg/day
same,LOAEL,dog [14]; systemic / pathology microscopic / adrenal gland / hypertrophy,1510 mg/kg/day
same,NOAEL,"dog [14]; systemic / pathology microscopic / adrenal gland / hypertrophy + systemic / in life observation / clinical signs / feces, discoloration + …",342 mg/kg/day
C/C=C/C(=O)Oc1ccccc1[N+](=O)[O-].CCCCCCCC.O=NO [Dinocap],LEL,rat [15],121 mg/kg/day
same,LOAEL,rat [15],121 mg/kg/day
same,NEL,rat [15],11.4 mg/kg/day
same,NOAEL,rat [15],11.4 mg/kg/day
CC(CCl)OC(C)CCl (centres undefined) [Bis(2-chloro-1-methylethyl) ether],LOAEL,mouse [16]; [33],> 927 mg/kg/day
same,NEL,mouse [16]; [33],8.41 mg/kg/day
same,NOAEL,mouse [16]; [33],≥ 927 mg/kg/day
same,LEL,mouse [16]; systemic / hematology / leukocyte (wbc) count differential / leukocyte (wbc),40.1 mg/kg/day
CCCCCCCCCc1ccccc1O [Nonylphenol (mixed)],LEL,rat [17]; [44],1.25 mg/kg/day
same,LOAEL,rat [17]; [44],> 1.25 mg/kg/day
same,NEL,rat [17]; [44],< 1.25 mg/kg/day
same,NOAEL,rat [17]; [44],≥ 1.25 mg/kg/day
same,LEL,rat [17]; [45],1.25 mg/kg/day
same,LOAEL,rat [17]; [45],> 1.25 mg/kg/day
same,NEL,rat [17]; [45],< 1.25 mg/kg/day
same,NOAEL,rat [17]; [45],≥ 1.25 mg/kg/day
same,LOAEL,rat [18]; [46],> 50 mg/kg/day
same,NOAEL,rat [18]; [46],≥ 50 mg/kg/day
same,LEL,rat [18]; [47],2 mg/kg/day
same,NEL,rat [18]; [47],< 2 mg/kg/day
same,LEL,rat [18]; [48],50 mg/kg/day
same,LOAEL,rat [18]; [48],> 50 mg/kg/day
same,NEL,rat [18]; [48],10 mg/kg/day
same,NOAEL,rat [18]; [48],≥ 50 mg/kg/day
same,LEL,rat [18]; [49],50 mg/kg/day
same,LOAEL,rat [18]; [49],> 50 mg/kg/day
same,NEL,rat [18]; [49],10 mg/kg/day
same,NOAEL,rat [18]; [49],≥ 50 mg/kg/day
"Clc1ccc(C(c2ccc(Cl)cc2)C(Cl)Cl)cc1 [p,p'-DDD]",LEL,rat [19],42.5 mg/kg/day
same,LOAEL,rat [19],> 85 mg/kg/day
same,NEL,rat [19],< 42.5 mg/kg/day
same,NOAEL,rat [19],≥ 85 mg/kg/day
same,LEL,mouse [20],61.6 mg/kg/day
same,LOAEL,mouse [20],> 123 mg/kg/day
same,NEL,mouse [20],< 61.6 mg/kg/day
same,NOAEL,mouse [20],≥ 123 mg/kg/day
